Measurements: ChEMBL document CHEMBL1154703, “Poly-N-methylated amyloid beta-peptide (Abeta) C-terminal fragments reduce Abeta toxicity in vitro and in Drosophila melanogaster” (J Med Chem, 2009)
Active and inactive are the calls of the source. No cut-off for these calls is given here. Non-standard residues stand in square brackets, D forms with d. Residues, ends and D or L forms follow the SMILES beside them. Met(O2) = CS(=O)(=O)CC[C@H](N)C(=O)O; NMeI = CC[C@H](C)[C@H](NC)C(=O)O; NMeL = CN[C@@H](CC(C)C)C(=O)O; NMeV = CN[C@H](C(=O)O)C(C)C; Sar = CNCC(=O)O

Legend:
[1] = Inhibition of fibril formation of Abeta (1-40) assessed as fibril levels at 1:5 molar ratio of Abeta and ligand after 72 hrs by transmission electron microscopy relative to untreated control; design: scale not given: the % may be the effect or the level left
[2] = Inhibition of Abeta (1-42) assessed as blockade of amyloid-like aggregates at 100 uM by Congo red binding assay
[3] = system: PC-12; test: Cytoprotection against Abeta (1-42)-induced toxicity in rat PC12 cells at 10 uM after 4 hrs by MTT assay; assay type: functional, cell-based
[4] = Inhibition of fibril formation of Abeta (1-40) assessed as fibril levels at 1:10 molar ratio of Abeta and ligand after 72 hrs by transmission electron microscopy relative to untreated control; design: scale not given: the % may be the effect or the level left
[5] = Effect on of Abeta (1-40) assessed as structure content at 5 hrs by CD spectroscopy
[6] = Reduction of beta-sheet formation of Abeta (1-40) at 100 uM during 4 to 5 hrs incubation by CD spectroscopy
[7] = Reduction of beta-sheet formation of Abeta (1-42) at 100 uM during 3 hrs incubation by CD spectroscopy
[8] = Inhibition of Abeta (1-40) assessed as blockade of amyloid-like aggregates at 100 uM by Congo red binding assay
[9] = Reduction of beta-sheet formation of Abeta (1-40) at 1:1 molar ratio of Abeta and ligand during 5 hrs incubation by CD spectroscopy
[10] = system: Drosophila melanogaster; test: Effect on life span in wild type Drosophila melanogaster at 300 uM dosed from embryonic stage and throughout adult life; assay type: functional, organism-based
[11] = Effect on of Abeta (1-42) assessed as unordered structure content after 5 hrs by CD spectroscopy
[12] = system: Drosophila melanogaster; test: Prolongation of life span in transgenic Drosophila melanogaster expressing human Abeta (1-42) at 300 uM dosed from embryonic stage and throughout adult life; assay type: functional, organism-based
[13] = Reduction of beta-sheet formation of Abeta (1-40) at 1:1 molar ratio of Abeta and ligand during 4 hrs incubation by CD spectroscopy
[14] = system: Drosophila melanogaster; test: Improvement in locomotor activity in transgenic Drosophila melanogaster expressing human Abeta (1-42) at 300 uM dosed from embryonic stage and throughout adult life by climbing assay; assay type: functional, organism-based
[15] = Inhibition of fibril formation of Abeta (1-40) assessed as fibril levels at 1:1 molar ratio of Abeta and ligand after 72 hrs by transmission electron microscopy relative to untreated control; design: scale not given: the % may be the effect or the level left
[16] = Inhibition of fibril formation of Abeta (1-40) assessed as change in fibril levels at 100 uM by atomic force microscopy relative to untreated control
[17] = Reduction of beta-sheet formation of Abeta (1-42) at 100 uM during 4 hrs incubation by CD spectroscopy
[18] = Effect on of Abeta (1-40) assessed as unordered structure content after 5 hrs by CD spectroscopy
[19] = Reduction of beta-sheet formation of Abeta (1-40) at 100 uM during 5 hrs incubation by CD spectroscopy
[20] = Inhibition of fibril formation of Abeta (1-40) assessed as change in fibril morphology at 100 uM by atomic force microscopy relative to untreated control

Row | Activity [1] | Activity [2] | Activity [4] | Activity [5] | Activity [6] | Activity [7] | Activity [8] | Structure (SMILES) | Activity [3] | other results
1 | 75% | – | – | – | – | – | – | CC(=O)N(C)[C@@H](C)C(=O)N(C)[C@@H](C)C(=O)N(C)[C@@H](C)C(=O)N(C)[C@@H](C)C(=O)N(C)[C@@H](C)C(N)=O | – | –
2 | – | inactive | 75% | 25% | Active | Active | inactive | CC[C@H](C)[C@H](NC(C)=O)C(=O)NCC(=O)N[C@@H](CC(C)C)C(=O)N[C@@H](CCSC)C(=O)N[C@H](C(=O)NCC(N)=O)C(C)C (Ac-IGLMVG-NH2) | inactive | –
3 | – | inactive | 75% | – | Active | Active | inactive | CC[C@H](C)[C@H](NC(C)=O)C(=O)N(C)CC(=O)N[C@@H](CC(C)C)C(=O)N[C@@H](CCSC)C(=O)N[C@H](C(=O)N(C)CC(N)=O)C(C)C (Ac-I[Sar]LMV[Sar]-NH2) | Active | –
4 | – | inactive | 50% | 25% | Active | Active | inactive | CC[C@H](C)[C@@H](C(=O)NCC(=O)N(C)[C@@H](CC(C)C)C(=O)N[C@@H](CCSC)C(=O)N(C)[C@H](C(=O)NCC(N)=O)C(C)C)N(C)C(C)=O (Ac-[NMeI]G[NMeL]M[NMeV]G-NH2) | Active | Activity [9]: inactive
5 | 0% | Active | 0% | 25% | – | – | Active | CC[C@H](C)[C@@H](C(=O)N(C)CC(=O)N(C)[C@@H](CC(C)C)C(=O)N[C@@H](CCSC)C(=O)N(C)[C@H](C(=O)N(C)CC(N)=O)C(C)C)N(C)C(C)=O (Ac-[NMeI][Sar][NMeL]M[NMeV][Sar]-NH2) | Active | Activity [10]: inactive; Activity [11]: > 50%; Activity [12]: Active; Activity [13]: Active; Activity [14]: Active; Activity [15]: 50%; Activity [16]: Active; Activity [17]: Active; Activity [18]: 55%; Activity [19]: Active; Activity [20]: Active
6 | 50% | – | – | – | – | – | – | CC[C@H](C)[C@@H](C(=O)N(C)CC(=O)N(C)[C@@H](CC(C)C)C(=O)N[C@@H](CCS(C)(=O)=O)C(=O)N(C)[C@H](C(=O)N(C)CC(N)=O)C(C)C)N(C)C(C)=O (Ac-[NMeI][Sar][NMeL][Met(O2)][NMeV][Sar]-NH2) | – | –
